Measured values published in ChEMBL document CHEMBL2203023, “Synopsis of some recent tactical application of bioisosteres in drug design” (J Med Chem, 2011).

Tests used:
[1] = target: T1, Dolichol-phosphate-mannose synthase (Trypanosoma brucei brucei) (UniProt Q5QQ41); details: 1 mM
T1 sequence (whole entry): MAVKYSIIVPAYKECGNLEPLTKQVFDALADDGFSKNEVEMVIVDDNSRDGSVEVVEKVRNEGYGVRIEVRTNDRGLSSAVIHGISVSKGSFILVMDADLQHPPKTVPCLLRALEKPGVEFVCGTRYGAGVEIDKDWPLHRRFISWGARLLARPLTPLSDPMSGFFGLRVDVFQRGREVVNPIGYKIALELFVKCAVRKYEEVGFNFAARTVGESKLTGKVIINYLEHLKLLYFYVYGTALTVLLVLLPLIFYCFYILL

Chain of 4-aminobutyrate aminotransferase, mitochondrial (Homo sapiens), P80404 (P80404 whole entry): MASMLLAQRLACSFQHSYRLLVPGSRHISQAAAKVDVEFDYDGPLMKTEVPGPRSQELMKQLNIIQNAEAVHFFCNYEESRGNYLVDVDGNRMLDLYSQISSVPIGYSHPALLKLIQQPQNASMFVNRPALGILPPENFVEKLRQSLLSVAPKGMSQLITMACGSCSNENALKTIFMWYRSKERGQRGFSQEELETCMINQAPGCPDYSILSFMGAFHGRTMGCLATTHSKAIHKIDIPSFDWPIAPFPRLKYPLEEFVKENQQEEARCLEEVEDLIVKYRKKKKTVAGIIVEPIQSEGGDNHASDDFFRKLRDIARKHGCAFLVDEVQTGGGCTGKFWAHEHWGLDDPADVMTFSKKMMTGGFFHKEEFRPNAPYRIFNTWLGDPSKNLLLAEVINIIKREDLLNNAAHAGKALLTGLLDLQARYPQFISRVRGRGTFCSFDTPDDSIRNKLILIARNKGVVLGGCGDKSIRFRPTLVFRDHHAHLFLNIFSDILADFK

| inhibition [1] | Molecule | Km (NCCCC(=O)O) |
| --- | --- | --- |
| 64% | Nc1nc2c(ncn2[C@@H]2O[C@H](CNc3c(NCc4ccccc4C(=O)O)c(=O)c3=O)[C@@H](O)[C@H]2O)c(=O)[nH]1 | – |
| 8.5% | Nc1nc2c(ncn2[C@@H]2O[C@H](COP(=O)(O)OP(=O)(O)O)[C@@H](O)[C@H]2O)c(=O)[nH]1 | – |
| – | 4-aminobutyrate aminotransferase, mitochondrial (Homo sapiens), P80404 | 2500 µM |
